The values below come from BindingDB's records for patent US9796704 (SYMPHONY EVOLUTION, INC., 2017).

Bounds are passed on as bounds.

Test in all cases: AlphaScreen Assay
The target of test [1] is Receptor tyrosine-protein kinase erbB-2 (Homo sapiens, UniProt P04626).
Description: (§1) In AlphaScreen, when the donor and acceptor beads are close in proximity, a series of photochemical events will give rise to a fluorescent signal upon light activation. Here we use biotinylated poly-(Glu, Tyr) 4:1 as the kinase substrate, streptavidin-coated donor beads and anti-phosphortyrosine antibody PY100-coated acceptor beads. […] Compounds, ATP, biotinylated poly-(Glu, Tyr) and kinases are mixed in a volume of 20 μL for 1 hr at ambient temperature using Greiner 384-well white clear bottom medium binding plates. Then 10 uL solution containing 15-30 mg/mL AlphaScreen beads, 75 mM Hepes, pH 7.4, 300 mM NaCl, 120 mM EDTA, 0.3% BSA and 0.03% Tween-20 is added to each well. After 2-16 hr incubation of the beads, plates are read in a Perkin Elmer AlphaQuest reader (available from PerkinElmer Life and Analytical Sciences, Inc., of Boston Mass.).
In test [2] the target is Vascular endothelial growth factor receptor 2 (Homo sapiens, UniProt P35968).
Description: as §1
Test [3] deals with Vascular endothelial growth factor receptor 1 (Homo sapiens, UniProt P17948).
Description: as §1
Test [4] has as its target Ephrin type-A receptor 2 (Homo sapiens, UniProt P29317).
Description: as §1
Test [5] concerns the target T1, Ephrin type-B receptor 4 (Homo sapiens, UniProt P54760).
T1 sequence (P54760 whole entry): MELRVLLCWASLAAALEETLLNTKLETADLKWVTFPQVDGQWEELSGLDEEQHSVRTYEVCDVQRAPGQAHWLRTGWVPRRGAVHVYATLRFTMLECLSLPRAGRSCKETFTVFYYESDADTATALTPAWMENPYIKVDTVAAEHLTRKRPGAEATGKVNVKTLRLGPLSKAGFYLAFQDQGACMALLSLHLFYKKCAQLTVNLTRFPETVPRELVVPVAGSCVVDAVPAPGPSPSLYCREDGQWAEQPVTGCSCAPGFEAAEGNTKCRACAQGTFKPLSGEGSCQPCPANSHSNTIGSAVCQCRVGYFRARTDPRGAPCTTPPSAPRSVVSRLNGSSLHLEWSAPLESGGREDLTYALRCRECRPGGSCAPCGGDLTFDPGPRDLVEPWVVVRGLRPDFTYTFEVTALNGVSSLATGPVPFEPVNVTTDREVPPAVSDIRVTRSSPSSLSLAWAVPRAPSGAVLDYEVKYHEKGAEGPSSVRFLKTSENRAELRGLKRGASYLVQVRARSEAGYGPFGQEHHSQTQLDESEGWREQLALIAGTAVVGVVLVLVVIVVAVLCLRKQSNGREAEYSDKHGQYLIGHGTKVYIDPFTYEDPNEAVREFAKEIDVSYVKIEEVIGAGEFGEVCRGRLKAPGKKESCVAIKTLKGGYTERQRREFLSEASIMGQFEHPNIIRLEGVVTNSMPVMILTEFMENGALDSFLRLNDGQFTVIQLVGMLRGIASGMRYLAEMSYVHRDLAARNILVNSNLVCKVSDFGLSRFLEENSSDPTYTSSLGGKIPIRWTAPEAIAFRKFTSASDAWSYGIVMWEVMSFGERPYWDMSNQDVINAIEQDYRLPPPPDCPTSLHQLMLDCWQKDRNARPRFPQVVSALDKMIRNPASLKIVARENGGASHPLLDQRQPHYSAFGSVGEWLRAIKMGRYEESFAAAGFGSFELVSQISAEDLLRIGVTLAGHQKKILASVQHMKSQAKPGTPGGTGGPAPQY
Description: as §1

The term IC50 denotes the concentration at which inhibition is half-maximal. A low value points to higher potency.

Sequence of Receptor tyrosine-protein kinase erbB-2 (P04626 whole entry): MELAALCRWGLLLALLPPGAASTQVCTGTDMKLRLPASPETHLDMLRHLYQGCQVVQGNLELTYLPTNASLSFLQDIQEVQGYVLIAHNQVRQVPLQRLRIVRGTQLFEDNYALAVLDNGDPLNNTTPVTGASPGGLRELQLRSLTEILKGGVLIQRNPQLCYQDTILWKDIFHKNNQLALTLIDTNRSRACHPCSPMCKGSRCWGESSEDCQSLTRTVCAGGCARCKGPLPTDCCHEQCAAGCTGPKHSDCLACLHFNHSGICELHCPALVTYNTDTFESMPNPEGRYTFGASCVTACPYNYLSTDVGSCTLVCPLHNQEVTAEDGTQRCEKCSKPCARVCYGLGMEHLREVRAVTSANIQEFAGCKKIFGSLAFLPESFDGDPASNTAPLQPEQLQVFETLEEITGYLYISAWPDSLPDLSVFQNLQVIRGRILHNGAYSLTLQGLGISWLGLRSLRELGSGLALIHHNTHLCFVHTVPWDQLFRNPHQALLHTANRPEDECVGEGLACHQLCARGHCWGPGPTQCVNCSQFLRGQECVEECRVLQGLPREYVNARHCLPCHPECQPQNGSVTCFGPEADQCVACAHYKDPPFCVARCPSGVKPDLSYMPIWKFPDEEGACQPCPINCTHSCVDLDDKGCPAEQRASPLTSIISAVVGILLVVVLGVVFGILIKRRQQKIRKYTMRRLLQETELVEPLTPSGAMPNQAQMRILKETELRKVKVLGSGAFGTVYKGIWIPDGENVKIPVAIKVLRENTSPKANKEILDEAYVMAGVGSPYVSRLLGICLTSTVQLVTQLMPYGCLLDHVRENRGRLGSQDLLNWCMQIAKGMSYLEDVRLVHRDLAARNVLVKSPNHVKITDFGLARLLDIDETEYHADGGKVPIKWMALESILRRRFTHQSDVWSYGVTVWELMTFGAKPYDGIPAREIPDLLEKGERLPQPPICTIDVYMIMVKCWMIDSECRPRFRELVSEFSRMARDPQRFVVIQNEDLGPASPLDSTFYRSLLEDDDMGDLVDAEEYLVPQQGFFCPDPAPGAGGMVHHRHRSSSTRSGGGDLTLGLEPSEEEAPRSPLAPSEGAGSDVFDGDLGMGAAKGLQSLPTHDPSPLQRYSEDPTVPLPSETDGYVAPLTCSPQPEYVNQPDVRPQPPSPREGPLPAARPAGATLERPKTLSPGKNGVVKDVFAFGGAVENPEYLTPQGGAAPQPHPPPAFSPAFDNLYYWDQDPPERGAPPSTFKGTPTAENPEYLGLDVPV
Sequence of Vascular endothelial growth factor receptor 2 (P35968 whole entry): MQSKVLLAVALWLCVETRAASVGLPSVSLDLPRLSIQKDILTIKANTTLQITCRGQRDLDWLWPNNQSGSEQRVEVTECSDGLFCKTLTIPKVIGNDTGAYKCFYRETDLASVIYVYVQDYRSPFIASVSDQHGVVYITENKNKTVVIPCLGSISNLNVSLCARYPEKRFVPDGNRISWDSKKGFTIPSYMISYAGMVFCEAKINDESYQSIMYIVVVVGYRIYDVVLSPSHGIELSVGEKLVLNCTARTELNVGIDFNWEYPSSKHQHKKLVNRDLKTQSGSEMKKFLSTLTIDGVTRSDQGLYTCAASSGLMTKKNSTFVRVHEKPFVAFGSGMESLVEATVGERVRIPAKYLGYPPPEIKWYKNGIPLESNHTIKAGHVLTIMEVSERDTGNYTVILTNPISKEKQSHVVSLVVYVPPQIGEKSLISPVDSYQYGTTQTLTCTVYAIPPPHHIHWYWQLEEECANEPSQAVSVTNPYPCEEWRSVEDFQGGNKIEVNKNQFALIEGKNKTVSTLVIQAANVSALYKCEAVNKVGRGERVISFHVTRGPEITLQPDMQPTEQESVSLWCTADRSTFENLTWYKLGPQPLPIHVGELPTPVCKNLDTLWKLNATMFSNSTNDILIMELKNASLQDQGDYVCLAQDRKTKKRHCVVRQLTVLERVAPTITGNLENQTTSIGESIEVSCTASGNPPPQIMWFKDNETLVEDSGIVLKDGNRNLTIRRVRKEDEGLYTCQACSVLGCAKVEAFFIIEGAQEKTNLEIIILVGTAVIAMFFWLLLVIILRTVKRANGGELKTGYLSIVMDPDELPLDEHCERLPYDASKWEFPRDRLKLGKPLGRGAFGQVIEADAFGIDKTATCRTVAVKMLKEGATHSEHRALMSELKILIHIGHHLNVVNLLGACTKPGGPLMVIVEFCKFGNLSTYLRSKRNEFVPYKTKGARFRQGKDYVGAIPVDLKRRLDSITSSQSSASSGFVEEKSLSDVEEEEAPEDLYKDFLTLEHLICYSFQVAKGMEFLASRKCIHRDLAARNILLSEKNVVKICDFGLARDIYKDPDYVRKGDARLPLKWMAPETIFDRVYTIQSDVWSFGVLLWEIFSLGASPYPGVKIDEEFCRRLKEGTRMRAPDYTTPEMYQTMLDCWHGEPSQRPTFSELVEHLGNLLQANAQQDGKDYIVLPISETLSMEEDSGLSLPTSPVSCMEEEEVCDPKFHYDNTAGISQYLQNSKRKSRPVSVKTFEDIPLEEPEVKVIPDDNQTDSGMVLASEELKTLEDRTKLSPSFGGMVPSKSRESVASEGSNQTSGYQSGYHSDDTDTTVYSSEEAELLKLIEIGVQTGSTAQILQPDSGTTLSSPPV
Sequence of Vascular endothelial growth factor receptor 1 (P17948 whole entry): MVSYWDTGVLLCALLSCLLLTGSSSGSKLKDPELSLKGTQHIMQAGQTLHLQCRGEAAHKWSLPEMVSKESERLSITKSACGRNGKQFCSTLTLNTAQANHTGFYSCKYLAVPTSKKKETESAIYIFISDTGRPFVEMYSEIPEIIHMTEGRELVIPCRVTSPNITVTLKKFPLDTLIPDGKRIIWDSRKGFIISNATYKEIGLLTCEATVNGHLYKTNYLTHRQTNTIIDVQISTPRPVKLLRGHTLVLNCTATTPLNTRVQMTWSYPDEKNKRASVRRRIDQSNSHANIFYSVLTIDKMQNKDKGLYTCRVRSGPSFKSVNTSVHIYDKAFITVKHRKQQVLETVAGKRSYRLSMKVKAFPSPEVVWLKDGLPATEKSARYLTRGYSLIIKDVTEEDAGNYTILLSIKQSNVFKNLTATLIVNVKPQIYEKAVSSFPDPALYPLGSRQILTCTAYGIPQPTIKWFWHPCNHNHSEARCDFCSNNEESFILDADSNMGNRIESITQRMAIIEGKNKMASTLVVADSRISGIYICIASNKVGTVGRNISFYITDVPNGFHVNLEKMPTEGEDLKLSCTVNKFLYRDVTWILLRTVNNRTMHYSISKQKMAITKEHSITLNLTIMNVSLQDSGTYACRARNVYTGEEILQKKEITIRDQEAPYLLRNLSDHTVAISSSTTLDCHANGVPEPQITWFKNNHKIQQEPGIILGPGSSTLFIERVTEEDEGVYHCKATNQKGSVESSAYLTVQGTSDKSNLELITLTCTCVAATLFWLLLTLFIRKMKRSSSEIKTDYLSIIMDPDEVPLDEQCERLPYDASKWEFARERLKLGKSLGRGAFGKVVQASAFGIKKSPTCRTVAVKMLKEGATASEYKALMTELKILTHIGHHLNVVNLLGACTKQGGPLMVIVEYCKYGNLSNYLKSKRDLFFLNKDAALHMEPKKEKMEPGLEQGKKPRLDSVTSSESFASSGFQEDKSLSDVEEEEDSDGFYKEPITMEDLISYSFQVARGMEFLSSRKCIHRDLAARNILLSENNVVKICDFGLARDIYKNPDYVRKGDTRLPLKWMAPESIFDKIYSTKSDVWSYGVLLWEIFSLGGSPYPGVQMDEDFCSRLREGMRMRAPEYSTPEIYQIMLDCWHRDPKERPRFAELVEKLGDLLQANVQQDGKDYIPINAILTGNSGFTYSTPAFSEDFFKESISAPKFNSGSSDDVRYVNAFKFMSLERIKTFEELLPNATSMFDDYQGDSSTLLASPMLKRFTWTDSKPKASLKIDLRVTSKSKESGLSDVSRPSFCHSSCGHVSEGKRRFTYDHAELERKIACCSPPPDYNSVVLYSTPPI
Sequence of Ephrin type-A receptor 2 (P29317 whole entry): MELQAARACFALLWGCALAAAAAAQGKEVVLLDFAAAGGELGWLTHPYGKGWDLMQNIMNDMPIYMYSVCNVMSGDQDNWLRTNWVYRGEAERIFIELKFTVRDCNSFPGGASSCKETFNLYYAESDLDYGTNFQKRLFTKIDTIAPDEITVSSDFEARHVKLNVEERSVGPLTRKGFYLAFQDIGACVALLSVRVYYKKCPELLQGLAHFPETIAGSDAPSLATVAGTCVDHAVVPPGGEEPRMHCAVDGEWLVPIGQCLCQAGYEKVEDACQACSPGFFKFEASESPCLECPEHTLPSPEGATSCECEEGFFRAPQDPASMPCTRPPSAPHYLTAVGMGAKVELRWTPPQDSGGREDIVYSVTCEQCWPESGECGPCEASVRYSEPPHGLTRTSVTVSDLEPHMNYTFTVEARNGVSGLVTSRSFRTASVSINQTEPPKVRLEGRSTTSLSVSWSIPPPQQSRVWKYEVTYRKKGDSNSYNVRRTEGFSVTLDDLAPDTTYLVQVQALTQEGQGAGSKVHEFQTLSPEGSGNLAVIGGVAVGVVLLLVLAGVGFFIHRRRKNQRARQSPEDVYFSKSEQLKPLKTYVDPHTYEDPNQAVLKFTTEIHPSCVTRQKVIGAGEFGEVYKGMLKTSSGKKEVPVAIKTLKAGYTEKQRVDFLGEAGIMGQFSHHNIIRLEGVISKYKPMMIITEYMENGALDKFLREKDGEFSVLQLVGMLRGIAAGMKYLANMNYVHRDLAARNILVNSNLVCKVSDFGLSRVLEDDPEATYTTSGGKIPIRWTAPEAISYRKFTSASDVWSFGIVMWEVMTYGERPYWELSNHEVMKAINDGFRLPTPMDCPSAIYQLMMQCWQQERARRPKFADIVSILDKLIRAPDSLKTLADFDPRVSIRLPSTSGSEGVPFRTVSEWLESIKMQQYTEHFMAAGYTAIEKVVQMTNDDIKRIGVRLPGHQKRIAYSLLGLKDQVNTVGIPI

`CCN1C[C@H]2C[C@@H](COc3cc4ncnc(Nc5ccc(Br)c(Cl)c5F)c4cc3OC)C[C@H]2C1` [US9796704, Entry 16]: the IC50 result in test [1] was “in the range around 525 nM”; in test [2], “in the range around 0.525 µM”; in test [3], “in the range around 525 nM”; in test [4], “in the range around 0.525 µM”.
As to `COc1cc2c(Nc3ccc(F)c(Cl)c3F)ncnc2cc1OC[C@H]1C[C@@H]2CN(C)C[C@@H]2C1` [US9796704, Entry 11], the IC50 entry in test [1] and in test [3] was “in the range around 525 nM” throughout.
In the case of `COc1cc2c(Nc3ccc(Cl)c(Cl)c3F)ncnc2cc1OC[C@@H]1C[C@@H]2CN(CC(C)C)C[C@@H]2C1` [US9796704, Entry 8], the values for the IC50 entry in test [1], in test [5] and in test [3] were “in the range around 10500 nM”, “in the range around 525 nM” and “in the range around 10500 nM”, respectively.
On to `COc1cc2c(Nc3cc(Cl)c(Br)cc3F)ncnc2cc1OC[C@H]1C[C@@H]2CN(C)C[C@@H]2C1` [US9796704, Entry 13], for which the IC50 in test [1] and in test [3] was less than 50 nM in each case.
For the compound `COc1cc2c(Nc3ccc(Br)c(Cl)c3F)ncnc2cc1OC[C@@H]1CN2CCOCC2CO1` (stereo partly specified) [US9796704, Entry 23], the IC50 result in test [2] is “in the range around 10.5 µM”; in test [5], “in the range around 10500 nM”; in test [3], “in the range around 525 nM”; in test [4], “in the range around 10.5 µM”.
As for `COc1cc2c(Nc3ccc(Cl)c(Cl)c3F)ncnc2cc1OC[C@@H]1CN2CCC[C@H]2C(=O)N1` [US9796704, Entry 51], the results for the half-maximal inhibitory concentration (IC50) result in test [2], in test [3] and in test [4] were “in the range around 10.5 µM”, “in the range around 10500 nM” and “in the range around 10.5 µM”, respectively.
Consider `COc1cc2c(Nc3ccc(Br)c(Cl)c3F)ncnc2cc1OC[C@@H]1C[C@@H]2CN(CC(C)C)C[C@@H]2C1` [US9796704, Entry 17], for which the IC50 entry in test [1] is “in the range around 10500 nM”; in test [2], “in the range around 0.525 µM”; in test [3] it was “in the range around 525 nM”; in test [4], “in the range around 0.525 µM”.
On to `COc1cc2c(Nc3ccc(Cl)c(Cl)c3)ncnc2cc1OCCNC1CC2CCC(C1)N2C` (stereo unspecified) [US9796704, Entry 55], for which the results for the IC50 entry in test [1], in test [3] and in test [4] were “in the range around 525 nM”, “in the range around 10500 nM” and “in the range around 10.5 µM”, respectively.
In the case of `COc1cc2c(Nc3ccc(Cl)c(Cl)c3F)ncnc2cc1OC[C@H]1CN2CCC[C@@H]2C(=O)N1C` [US9796704, Entry 54], the IC50 result in test [2] is “in the range around 10.5 µM”; in test [5], “in the range around 525 nM”; in test [3], “in the range around 10500 nM”; in test [4], “in the range around 10.5 µM”.
With `COc1cc2c(Nc3ccc(Br)c(Cl)c3F)ncnc2cc1OCC1CO[C@@H]2[C@@H](OC)CO[C@H]12` (stereo partly specified) [US9796704, Entry 44], the IC50 result was “in the range around 10500 nM” in test [1] and “in the range around 525 nM” in test [3].
On the same counts, the results for `COc1cc2c(Nc3ccc(Cl)c(Cl)c3F)ncnc2cc1OC[C@@H]1C[C@@H]2CN(C(C)C)C[C@@H]2C1` [US9796704, Entry 1] are less than 50 nM and “in the range around 525 nM”.
With `COc1cc2c(Nc3ccc(Cl)c(Cl)c3)ncnc2cc1OCCC1CC2CCC(C1)N2C` (stereo unspecified) [US9796704, Entry 57], the IC50 entry in test [1] is “in the range around 525 nM”; in test [5] it was “in the range around 525 nM”; in test [3] it was “in the range around 10500 nM”.
With `COc1cc2c(Nc3ccc(Br)c(Cl)c3Cl)ncnc2cc1OC[C@@H]1CN2CCOCC2CO1` (stereo partly specified) [US9796704, Entry 27], the concentration for half-maximal inhibition (IC50) result in test [1] is “in the range around 525 nM”; in test [3] it was less than 50 nM.
The matching figures for `COc1cc2c(Nc3ccc(Br)c(Cl)c3F)ncnc2cc1OC[C@H]1C[C@@H]2CN(C)C[C@@H]2C1` [US9796704, Entry 10]: “in the range around 525 nM” and “in the range around 525 nM”.
For `COc1cc2c(Nc3ccc(Cl)c(Cl)c3)ncnc2cc1OCC1CN2CSC[C@H]2CO1` (stereo partly specified) [US9796704, Entry 56], the IC50 entry in test [2] is “in the range around 10.5 µM”; in test [3] it was “in the range around 10500 nM”; in test [4], “in the range around 10.5 µM”.
Turning to `COc1cc2c(Nc3ccc(Br)c(Cl)c3F)ncnc2cc1OC[C@@H]1CN2CCC[C@H]2C(=O)N1` [US9796704, Entry 53], the IC50 result was “in the range around 525 nM” in test [1], “in the range around 525 nM” in test [5], “in the range around 10500 nM” in test [3] and “in the range around 10.5 µM” in test [4].
Take `COc1cc2c(Nc3cc(Cl)c(Br)cc3F)ncnc2cc1OC[C@H]1CN2CCC[C@@H]2CO1` [US9796704, Entry 32]: the IC50 entry in test [2] is “in the range around 0.525 µM”; in test [5] it was “in the range around 525 nM”; in test [3] it was “in the range around 10500 nM”; in test [4] it was “in the range around 10.5 µM”.
As to `COc1cc2c(Nc3ccc(Cl)c(Cl)c3F)ncnc2cc1OC[C@@H]1CN2CCC[C@H]2CO1` [US9796704, Entry 36], the IC50 result was “in the range around 10500 nM” in test [1], “in the range around 10500 nM” in test [5], “in the range around 10500 nM” in test [3] and “in the range around 10.5 µM” in test [4].
As for `COc1cc2c(Nc3cc(Cl)c(Br)cc3F)ncnc2cc1OCC1CO[C@@H]2[C@@H](OC)CO[C@H]12` (stereo partly specified) [US9796704, Entry 41], the IC50 result in test [1] and in test [3] was “in the range around 525 nM” in each case.
Take `COc1cc2c(Nc3ccc(Cl)c(Cl)c3)ncnc2cc1OCC1CC2CCC(C1)N2C` (stereo unspecified) [US9796704, Entry 58]: the half-maximal inhibitory concentration (IC50) result in test [3] was “in the range around 10500 nM”.
With `COc1cc2c(Nc3ccc(Br)c(Cl)c3Cl)ncnc2cc1OC[C@H]1CN2CCOCC2CO1` (stereo partly specified) [US9796704, Entry 18], the values for the IC50 result in test [1], in test [5] and in test [3] were “in the range around 525 nM”, less than 50 nM and “in the range around 525 nM”, respectively.
For `COc1cc2c(Nc3ccc(Cl)c(Cl)c3)ncnc2cc1OC[C@H]1C[C@@H]2CN(C)C[C@@H]2C1` [US9796704, Entry 15], the IC50 was less than 50 nM in test [1] and “in the range around 525 nM” in test [3].
`COc1cc2c(Nc3ccc(Cl)c(Cl)c3F)ncnc2cc1OC[C@@H]1CN2CCC[C@@H]2C(=O)N1` [US9796704, Entry 52]: the IC50 result was “in the range around 10.5 µM” in test [2], “in the range around 10500 nM” in test [3] and “in the range around 10.5 µM” in test [4].
Take `COc1cc2c(Nc3ccc(Cl)c(Cl)c3)ncnc2cc1OC1CC2CCC(C1)N2C` (stereo unspecified) [US9796704, Entry 60]: the half-maximal inhibitory concentration (IC50) entry in test [1] is “in the range around 525 nM”; in test [2], “in the range around 10.5 µM”; in test [3], “in the range around 525 nM”; in test [4], “in the range around 10.5 µM”.
Regarding `COc1cc2c(Nc3ccc(Br)c(Cl)c3Cl)ncnc2cc1O[C@H]1CO[C@H]2[C@@H]1OC[C@@H]2OC` [US9796704, Entry 66], the IC50 entry in test [1] is “in the range around 10500 nM”; in test [2], more than 20 µM; in test [3] it was more than 20000 nM.
For `COc1cc2c(Nc3ccc(F)c(F)c3)ncnc2cc1O[C@@H]1CO[C@@H]2[C@H]1OC[C@H]2F` [US9796704, Entry 111], the 50% inhibitory concentration (IC50) entry in test [1] is “in the range around 525 nM”; in test [2] it was “in the range around 0.525 µM”; in test [5], “in the range around 525 nM”; in test [4] it was “in the range around 0.525 µM”.
Take `COc1cc2c(Nc3cc(Cl)c(Cl)cc3F)ncnc2cc1OC[C@H]1C[C@@H]2CN(C)C[C@@H]2C1` [US9796704, Entry 12]: the IC50 in test [1] and in test [3] was less than 50 nM throughout.
Take `COc1cc2c(Nc3ccc(Br)c(Cl)c3Cl)ncnc2cc1OC[C@H]1C[C@@H]2CN(C)C[C@@H]2C1` [US9796704, Entry 14]: the half-inhibitory concentration (IC50) result in test [1] and in test [3] was “in the range around 525 nM” in each case.
